Reference: the NIST ThermoML archive (doi:10.1021/je020206a)
Numbers after ± are expanded uncertainties.

Experiment: wn = mass fraction of the nth substance listed
Settings: 101.3 kPa, Liquid, w1 = 0.3

SMILES	mass density (293.15 K)	viscosity (293.15 K)	mass density (298.15 K)	viscosity (298.15 K)	mass density (303.15 K)	viscosity (303.15 K)	mass density (308.15 K)	viscosity (308.15 K)	mass density (313.15 K)	viscosity (313.15 K)	mass density (318.15 K)	viscosity (318.15 K)	mass density (323.15 K)	viscosity (323.15 K)
CC(C)(N)CO [2-amino-2-methylpropan-1-ol] + O	999.85 ± 1.1 kg/m3	4.89 ± 0.43 mPa·s	997.41 ± 1.1 kg/m3	3.79 ± 0.34 mPa·s	994.62 ± 1.1 kg/m3	3.21 ± 0.29 mPa·s	991.22 ± 1.1 kg/m3	2.8 ± 0.25 mPa·s	988.72 ± 1.2 kg/m3	2.24 ± 0.21 mPa·s	986.24 ± 1.2 kg/m3	1.92 ± 0.18 mPa·s	983.13 ± 1.3 kg/m3	1.58 ± 0.15 mPa·s
NCCO [2-aminoethan-1-ol] + O	1015.3 ± 1.1 kg/m3	2.63 ± 0.24 mPa·s	1012.1 ± 1.1 kg/m3	2.2 ± 0.2 mPa·s	1009.2 ± 1.1 kg/m3	2.1 ± 0.19 mPa·s	1004.9 ± 1.1 kg/m3	1.85 ± 0.17 mPa·s	1003.2 ± 1.2 kg/m3	1.6 ± 0.15 mPa·s	1001 ± 1.2 kg/m3	1.5 ± 0.14 mPa·s	997.76 ± 1.3 kg/m3	1.29 ± 0.12 mPa·s
CN(CCO)CCO [N-methyldiethanolamine] + O	1032.2 ± 1.1 kg/m3	3.46 ± 0.31 mPa·s	1027.5 ± 1.1 kg/m3	3.02 ± 0.27 mPa·s	1023.1 ± 1.1 kg/m3	2.68 ± 0.24 mPa·s	1019.9 ± 1.2 kg/m3	2.27 ± 0.21 mPa·s	1018.2 ± 1.2 kg/m3	1.92 ± 0.18 mPa·s	1014.2 ± 1.3 kg/m3	1.72 ± 0.16 mPa·s	1011.2 ± 1.3 kg/m3	1.49 ± 0.14 mPa·s
OCCNCCO [diethanolamine] + O	1042.7 ± 1.1 kg/m3	4.22 ± 0.37 mPa·s	1037.4 ± 1.1 kg/m3	3.26 ± 0.3 mPa·s	1033.2 ± 1.1 kg/m3	2.57 ± 0.23 mPa·s	1029.1 ± 1.2 kg/m3	2.51 ± 0.23 mPa·s	1026.4 ± 1.2 kg/m3	1.97 ± 0.18 mPa·s	1022.7 ± 1.3 kg/m3	1.72 ± 0.16 mPa·s	1019.3 ± 1.3 kg/m3	1.41 ± 0.13 mPa·s
